Where two headings read alike, the source gives them in different places.
Key:
[1] = Serum drug levels in mice (LC-MS/MS); type: in vivo; conditions: single dose 25 mg/kg subcutaneous, mice, LC-MS/MS; in contrast to 100 mg/kg; 6 to 8 mice per group
Method: Fifty microliters of aliquots of murine serum was mixed with 100 µL acetonitrile. The mixture was vortexed and then centrifuged at 15,000 × g for 20 min in a Beckman Coulter Microfuge 22R Centrifuge at room temperature. The supernatant was transferred to a clean tube, and then 15 µL of the supernatant was injected onto LC-MS/MS. The chromatographic system consisted of an Agilent 1200 series LC system and an Agilent ZORBAX Eclipse XDB-C8 column (5 µm, 3.0 × 150 mm) interfaced to an MDS Sciex API3000 tandem mass spectrometer. The MS/MS ion transitions monitored were m/z 725/144 for vancomycin. A gradient HPLC method was employed for separation. Mobile phase A consisted of 10 mM ammonium acetate aqueous solution containing 0.1% formic acid and mobile phase B consisted of acetonitrile. The gradient profile was as follows (min/%B): 0.0–0.9/5, 1.0–2.0/50, 2.1–3.7/95, 3.8–5.0/5. The flow rate was set at 1.5 mL/min.

[2] = system: Elizabethkingia anophelis; assay: Galleria mellonella (wax moth) infection survival model; type: in vivo
Method: (§1) In vivo efficacy was assessed by wax moth (Galleria mellonella), murine pneumonia, and murine thigh infection models following the protocols of our previous study ([2]). The Animal Ethics Committee of Taiwan’s National Health Research Institutes approved the murine pneumonia and thigh infection models.
G. mellonella was reared at the National Health Research Institutes of Taiwan. Caterpillars in the final instar larval stage (weight ca. 250 mg) were used. […] A 10 µL aliquot of E. anophelis at the predetermined lethal dose was injected into the hemocoel of each caterpillar via the last left proleg. Antibiotics were administered once into another proleg at the indicated time points; vancomycin (5, 10, or 20 mg/kg, 2 h post-inoculation); other glycopeptides (teicoplanin, 10 mg/kg, 30 min post-inoculation; dalbavancin, 8.75 mg/kg, 2 h post-inoculation; oritavancin, 15 mg/kg, 1 h post-inoculation) ([11][–][13]); or daptomycin (10 mg/kg, 2 h post-inoculation) ([13]). Each treatment group contained 6–8 caterpillars. A control group injected with sterile PBS was included to monitor for trauma-related mortality. Caterpillars were incubated at 37°C, and survival was recorded twice daily for 72 h.

[3] = system: Elizabethkingia anophelis; assay: Murine pneumonia model; type: in vivo, C57BL/6J mice; conditions: for survival of infected mice: 8 mice per group
Method: as §1
For the pneumonia model, a bacterial suspension was mixed with 5% mucin from porcine stomach (type 3; Sigma-Aldrich, Saint Louis, USA). Seven-week-old C57BL/6J mice were anesthetized with isoflurane for 10 min. For each strain, the inoculum corresponded to the lowest dose that caused >80% mortality in preliminary testing. This inoculum (10⁶–10⁸ cfu, depending on strain) was delivered intratracheally to induce pneumonia. Two hours thereafter, mice received either high or human-equivalent doses of subcutaneous vancomycin (100 mg/kg or 25 mg/kg, respectively) or intraperitoneal teicoplanin (50 mg/kg) ([17]) twice daily for 3 days. Each group contained eight mice, and survival was monitored for 3 days.

[4] = system: Elizabethkingia anophelis; assay: Disc diffusion (DD) zone diameter; type: cell-based
From the text: Eighteen E. anophelis clinical isolates from the nationwide surveillance program (Taiwan Surveillance of Antimicrobial Resistance) were well characterized in our previous study ([7]) and were selected for susceptibility testing and minimum bactericidal concentration (MBC) assays. Among them, five isolates with different clonality (underlined strains in Fig. S1) were selected for the time-kill assays and in vivo experiments.
Broth microdilution, disc diffusion, Etest, and agar dilution assays were conducted following CLSI guidelines to determine vancomycin MICs ([8]). […] Criteria for Staphylococcus spp. were not adopted due to the lack of a zone diameter breakpoint. MBCs were determined following CLSI guidelines ([8]).

E. anophelis = assay: Broth microdilution MIC of laboratory-induced and gene-edited mutants; type: cell-based, Elizabethkingia anophelis; conditions: for MIC: Elizabethkingia anophelis
Method: E. anophelis and non-anophelis species with baseline vancomycin MICs of 16–32 mg/L (Table 2) were well characterized in our previous study ([7]) and were included in the induction study. The induction of mutants with elevated vancomycin MICs was modified from a previous study ([18]). Briefly, 10^9 cfu of wild-type E. anophelis (2008S01-229) was plated on brain heart infusion agar (Becton Dickinson, Franklin Lakes, NJ, USA) with twofold multiples of vancomycin (32 –256 mg/L). Isolates from viable colonies were subjected to broth microdilution. Genomic comparison between the parental strain (2008S01-229) and elevated-MIC mutants was performed to identify the mutated gene conferring increased vancomycin MIC. To determine whether similar genetic changes occurred in other Elizabethkingia species, non-anophelis isolates were subjected to the same induction protocol. The corresponding target genes were then analyzed by Sanger sequencing to assess the presence of analogous mutations. The target gene related to elevated vancomycin MICs was also validated via scarless gene editing.
The suicide plasmid pUT-ermF, which contains two key selection markers: the ermF gene for erythromycin resistance and the sacB gene for sucrose sensitivity-based counterselection, was used as previously described ([19]). DNA fragments corresponding to the upstream and downstream flanking regions of the target gene were cloned into pUT-ermF. The recombinant plasmids were first introduced into E. coli S17–λpir and subsequently transferred into Elizabethkingia spp. via conjugation. The first recombination events were selected on LB agar containing 250 µg/mL erythromycin, and the second recombination (plasmid resolution) was selected by plating on LB agar with 10% sucrose (without NaCl). Colonies were screened and confirmed by PCR sequencing. Genome sequencing was carried out to confirm no other inadvertent changes.

CN[C@H](CC(C)C)C(=O)N[C@H]1C(=O)N[C@@H](CC(N)=O)C(=O)N[C@H]2C(=O)N[C@H]3C(=O)N[C@H](C(=O)N[C@H](C(=O)O)c4cc(O)cc(O)c4-c4cc3ccc4O)[C@H](O)c3ccc(c(Cl)c3)Oc3cc2cc(c3O[C@@H]2O[C@H](CO)[C@@H](O)[C@H](O)[C@H]2O[C@H]2C[C@](C)(N)[C@H](O)[C@H](C)O2)Oc2ccc(cc2Cl)[C@H]1O [Vancomycin]
serum concentration-time profile [1]: resembled that of humans
survival of infected wax moths ([2]; 10 mg/kg once, 2 h post-inoculation, five E. anophelis isolates, 72 h, 37°C, 6-8 caterpillars per group): improved the survival
improvement of larval survival ([2]; 10 mg/kg, infection by 2008S01-229-VAN-R compared to 2008S01-229): hampered
dose dependence of survival of infected wax moths ([2]; 5, 10 and 20 mg/kg once, 2 h post-inoculation, two clinical isolates): dose-dependent effect
survival of infected mice ([3]; 25 mg/kg subcutaneous twice daily for 3 days, from 2 h after intratracheal inoculation, all clinical strains except 2014C06-157): significantly improved the survival or delayed death
in vivo efficacy against one isolate ([3]; 25 mg/kg, one isolate with similar MIC (2014C06-157)): ineffective
survival of infected mice ([3]; 100 mg/kg subcutaneous twice daily for 3 days): conferred a survival benefit
improvement of murine survival ([3]; 100 mg/kg twice daily, infection by 2008S01-229-VAN-R compared to 2008S01-229): hampered
zone diameters, all isolates ([4]; 18 E. anophelis isolates, disc diffusion, susceptibility breakpoint >= 17 mm (Enterococcus spp.)): < 17 mm
DD zone diameter ([4]; E. anophelis clinical isolate 2008N05-106): 15 mm
DD zone diameter ([4]; E. anophelis clinical isolate 2008S01-229): 15 mm
DD zone diameter ([4]; E. anophelis clinical isolate 2014C06-157): 15 mm
DD zone diameter ([4]; E. anophelis clinical isolate 2016N17-576): 15 mm
DD zone diameter ([4]; E. anophelis clinical isolate 2018C04-213): 15 mm
DD zone diameter ([4]; E. anophelis clinical isolate 2018C04-224): 15 mm
DD zone diameter ([4]; E. anophelis clinical isolate 2018C07-210): 14 mm
DD zone diameter ([4]; E. anophelis clinical isolate 2018C07-234): 15 mm
DD zone diameter ([4]; E. anophelis clinical isolate 2018C08-127): 14 mm
DD zone diameter ([4]; E. anophelis clinical isolate 2018E03-151): 14 mm
DD zone diameter ([4]; E. anophelis clinical isolate 2018E04-135): 14 mm
DD zone diameter ([4]; E. anophelis clinical isolate 2018N16-057): 15 mm
DD zone diameter ([4]; E. anophelis clinical isolate 2018N17-036): 15 mm
DD zone diameter ([4]; E. anophelis clinical isolate 2018N17-073): 14 mm
DD zone diameter ([4]; E. anophelis clinical isolate 2018N17-153): 14 mm
DD zone diameter ([4]; E. anophelis clinical isolate 2018N21-226): 13 mm
DD zone diameter ([4]; E. anophelis clinical isolate 2018S09-023): 15 mm
DD zone diameter ([4]; E. anophelis clinical isolate 2018S11-172): 13 mm
MIC (E. anophelis; induced E. anophelis mutant, pbp4 692InsC, Frameshift, 1 isolate): 512 mg/L
MIC (E. anophelis; induced E. anophelis mutant, pbp4 736Del8bp, Frameshift, 1 isolate): 512 mg/L
MIC (E. anophelis; induced E. anophelis mutant, pbp4 827DelA, Frameshift, 1 isolate): 128 mg/L
MIC (E. anophelis; scarless deletion of pbp4 in wild-type E. anophelis 2008N05-106, read-out: MIC): > 512 mg/L
MIC (E. anophelis; wild-type E. anophelis parent strain (2008S01-229), read-out: Parent strain MIC): 32 mg/L
effect on MIC (E. anophelis; replacement of exbD with Thr28Pro mutation in 2008N05-106): did not affect the vancomycin MIC
